Results on nine molecules are retold here after US8445677B2, “Substituted pyrimidyl guanidine derivatives having anticancer activity” (University of Southern California, priority 2008, dated 2013).

The subject of assay [1] is NIH3T3. Kind of assay: MTT cytotoxicity assay (Example 1). The assay is classed as cell-based, mouse. From the text: (§1) Human breast cancer cells MDA-MB-435 were purchased from the American Type Culture Collection (Manassas, Va.). The HCT116 p53+/+ and HCT116 p53−/− cells were kindly provided by Dr. Bert Vogelstein (Johns Hopkins Medical Institutions, Baltimore, Md.). The human ovarian carcinoma cell line (HEY) which is naturally resistant to cisplatin, was kindly provided by Dr. Louis Dubeau, University of Southern California (USC) Norris Cancer Center, and NIH3T3 normal mouse fibroblast cells were kindly provided by Dr. Michael Press from USC. HEY and NIH3T3 cells were maintained as monolayer cultures in RPMI, HCT 116 cells in McCoy1s5A media and MDA-MB 435 in DMEM. Media were purchased from (Mediatech, Virginia) and supplemented with 10% fetal bovine serum (Gemini-Bioproducts, Woodland, Calif.), 2 mM L-glutamine and 5% Penicillin/streptomycin from Bio whittaker were purchased from VWR. Cells were incubated at 37° C. in a humidified atmosphere of 5% CO2. To remove the adherent cells from the flask for passaging and counting, cells were washed with PBS without calcium or magnesium, incubated with a small volume of 0.25% trypsin-EDTA solution (Sigma-Aldrich, St. Louis, Mo.) for 5-10 min, and washed with culture medium and centrifuged. All experiments were performed using cells at exponential growth stage. Cells were routinely checked for mycoplasma contamination using a PCR-based assay (Stratagene, Tex., USA).
(§2) Stock solutions (10 mM) of all compounds were prepared in DMSO and stored at −20° C. Further dilutions were made fresh in PBS or cell-culture media right before cell treatment.
(§3) Cytotoxicity was assessed by a 3-(4,s-dimethylthiazol-2-yl)-2,5-diphenyltetrazolium bromide (MTT) assay as previously described.^24 Briefly, cells were seeded in 96-well microtiter plates and allowed to attach overnight. Cells were subsequently treated with continuous exposure to the corresponding drug for 72 h. A MTT solution (at a final concentration of 0.5 mglml) was added to each well, and cells were incubated for 4 h at 37° C. After removal of the medium, DMSO was added and the absorbance was read at 570 nm. All assays were done in triplicate. The IC50 was then determined for each drug from a plot of log (drug concentration) versus percentage of cells killed.

Assay [2] concerns HCT p53+/+ cells. Nature of the assay: Colony formation assay. The assay is classed as cell-based. As to conditions: several doses. As to the method: (§4) Colony formation assays were also performed to confirm the activity of these compounds as described.^1,25 Briefly, cells were plated in 6-well plates at a density of 500 cells/well and allowed to attach. The next day, serial dilutions of the corresponding compounds were added and allowed to incubate for 24 h. After exposure, cells were washed in PBS and cultured in drug-free media until colonies were formed (8-10 days). Cells were subsequently washed, fixed with a 1% glutaraldehyde solution for 30 min, and stained with a solution of crystal violet (2%) for 30 min. After staining, cells were thoroughly washed with water. Colonies were imaged on the ChemiDoc Imaging System (Bio-Rad) and counted using the Quantity One quantitation software package (Bio-Rad). The data reported represent means of at least three independent experiments.

The subject of assay [3] is HCT116 p53+/+. Kind of assay: MTT cytotoxicity assay (Example 1). The assay is classed as cell-based. To be noted: for IC50: MTT, 72 h.
Text: as §1, §2, §3
On the technique in general: Tetrazolium dyes change colour on reduction, which living cells bring about.

Assay [4] concerns HCT116 p53−/−. Kind of assay: MTT cytotoxicity assay (Example 1). The assay is classed as cell-based. As to conditions: for IC50: MTT, 72 h.
Text: as §1, §2, §3

For assay [5], the system named is HEY cells. Nature of the assay: Colony formation assay. The assay is classed as cell-based, human. As to conditions: several doses. How it is done: as §4
Assay [6] deals with panel of cancer cell lines. Nature of the assay: MTT cytotoxicity, panel of cancer cell lines (Example 1). To be noted: other selected cells, dose up to 10.0 μM. The assay is classed as cell-based.
Text: as §1, with “To remove the adherent cells from the flask for passaging and counting, cells were washed with PBS without calcium or magnesium, incubated with a small volume of 0.25% trypsin-EDTA solution (Sigma-Aldrich, St. Louis, Mo.) for 5-10 min, and washed with culture medium and centrifuged. All experiments were performed using cells at exponential growth stage. Cells were routinely checked for mycoplasma contamination using a PCR-based assay (Stratagene, Tex., USA).” left out
Cytotoxicity was assessed by a 3-(4,s-dimethylthiazol-2-yl)-2,5-diphenyltetrazolium bromide (MTT) assay as previously described.^24 Briefly, cells were seeded in 96-well microtiter plates and allowed to attach overnight. […] After removal of the medium, DMSO was added and the absorbance was read at 570 nm. […] The IC50 was then determined for each drug from a plot of log (drug concentration) versus percentage of cells killed.

Assay [7] deals with HEY. Nature of the assay: MTT cytotoxicity assay (Example 1). As to conditions: 72 h. The assay is classed as cell-based, human.
Text: as §1, §2, §3

Assay [8] concerns MDA-MB-435. Nature of the assay: MTT cytotoxicity assay (Example 1). The assay is classed as cell-based, human. As to conditions: Homo sapiens, MDA-MB-435, 72 h.
Text: as §1, §2, §3

The test system of assay [9] is panel of cancer cell lines. Kind of assay: MTT cytotoxicity, panel of cancer cell lines (Example 2). The assay is classed as cell-based. From the text: (§5) Human breast cancer cell lines MDA-MB-435 and SkBr-3 were purchased from the American Type Culture Collection (Manassas, Va.). The HCT116 P53+/+ and HCT116 P53−/− cell lines were kindly provided by Dr. Bert Vogelstein (Johns Hopkins Medical Institutions, Baltimore, Md.). The HEY human ovarian carcinoma cell line was kindly provided by Dr. Louis Dubeau (University of Southern California Norris Cancer Center). Cells were maintained as monolayer cultures in media supplemented with 10% fetal bovine serum (Gemini-Bioproducts, Woodland, Calif.) and 2 mmo/lL-glutamine at 37° C. in a humidified atmosphere of 5% C02. To remove the adherent cells from the flask for passaging and counting, cells were washed with PBS without calcium or magnesium, incubated with a small volume of 0.25% trypsin-EDTA solution (Sigma-Aldrich, St. Louis, Mo.) for 5-10 min, and washed with culture medium and centrifuged. All experiments were performed using cells in exponential growth stage. Cells were routinely checked for mycoplasma contamination using a PCR-based assay (Stratagene, Cambridge, UK).
(§6) Stock solutions (10 mM) of all compounds were prepared in DMSO and stored at −20° C. Further dilutions were made fresh in cell-culture media just prior to cell treatment.
(§7) Cytotoxicity was assessed by a 3-(4,5-dimethylthiazol-2-yl)-2,5-diphenyltetrazolium bromide (MTT) assay as previously described.^23 Cells were seeded in 96-well plates and allowed to attach overnight. Cells were subsequently treated with continuous exposure to the corresponding drug for 72 h. An MTT solution (at a final concentration of 0.5 mg/ml) was added to each well, and cells were incubated for 4 h at 37° C. After removal of the medium, DMSO was added and the absorbance was read at 570 nm. All assays were performed in triplicate. The IC50 was determined for each drug from a plot of log (drug concentration) versus percentage of cells killed.

In assay [10] the test system is HCT116 p53+/+. Kind of assay: MTT cytotoxicity assay (Example 2). The assay is classed as cell-based. To be noted: Homo sapiens.
Text: as §5, §6, §7

The subject of assay [11] is HCT116 p53−/−. Nature of the assay: MTT cytotoxicity assay (Example 2). The assay is classed as cell-based. To be noted: Homo sapiens, HCT-116, 72 h.
Text: as §5, §6, §7

In assay [12] the test system is HEY. Nature of the assay: MTT cytotoxicity assay (Example 2). As to conditions: 72 h. The assay is classed as cell-based, human.
Text: as §5, §6, §7

For assay [13], the system named is SkBr-3. Kind of assay: MTT cytotoxicity assay (Example 2). The assay is classed as cell-based, human.
Text: as §5, §6, §7

Assay [14] has as its system MDA-MB-435. Nature of the assay: MTT cytotoxicity assay (Example 2). As to conditions: Homo sapiens, MDA-MB-435, 72 h. The assay is classed as cell-based.
Text: as §5, §6, §7

[15] abbreviates: HCT-116, 72 h, MTT, 72 h, read-out: IC50 Hct116 p53+/+.

With `Oc1ccc(Br)cc1/C=N/Nc1nc2nonc2nc1Nc1ccc(F)cc1` [Compound 2], the IC50 is 6000 ± 1400 nM in assay [1] (72 h); 8000 nM in assay [1] (Mus musculus, NIH3T3, 72 h); less than 3000 nM in assay [3] (Homo sapiens, HCT-116, 72 h); 1500 ± 1000 nM in assay [3]; less than 3000 nM in [4] (Homo sapiens, HCT-116, 72 h); 1800 ± 700 nM in assay [4]. Further, the “toxic effect in colony formation assay” value in assay [2] and in assay [5] was “significant toxic effect” throughout.
Regarding `Cc1cccc(Nc2nc3nonc3nc2NN=Cc2ccc(-c3ccccc3Cl)o2)c1C` [Compound 19], the toxicity result in assay [6] is “not toxic”; in assay [3], “toxic”; in assay [4], “toxic”. The IC50 in assay [1] (Mus musculus, NIH3T3, 72 h) was greater than 10000 nM; in assay [3] (Homo sapiens, HCT-116, 72 h) it was 3000 nM; in assay [3], 2000 nM; in [4] (Homo sapiens, HCT-116, 72 h) it was 6000 nM; in assay [4], 4000 nM; in assay [7], 5000 nM. In addition, the IC50 was 3000 nM in assay [7] (Homo sapiens) and greater than 10000 nM in assay [8].
Consider `Cc1cc(C)nc(NC(=N)Nc2ccc(Cl)c(C(F)(F)F)c2)n1` [4-SMD6-8], for which the IC50 was less than 3000 nM in assay [9] (certain cancer cell lines); 1600 ± 400 nM in assay [10] (setting [15]); 2100 ± 500 nM in assay [11]; 2200 ± 300 nM in assay [12] (Homo sapiens); 2500 ± 500 nM in [13] (Homo sapiens, SK-BR-3, 72 h).
On to `Cc1cccc(NCc2ccc(O)c3ncccc23)c1` [17-SMD58-12], for which the IC50 in [10] (setting [15]) is 1800 ± 400 nM; in assay [14], 6600 nM; in [11], 1900 ± 400 nM; in assay [12] (Homo sapiens) it was 1500 ± 800 nM; in [13] (Homo sapiens, SK-BR-3, 72 h) it was 4000 ± 500 nM.
Taken in the same sequence, the figures for `CCOC(=O)N1CCN(Cc2ccc(O)c3ncccc23)CC1` [13-SMD58-5] were 2100 ± 200 nM, 5300 ± 100 nM, 1000 ± 100 nM, 1900 nM and 3700 ± 500 nM.
In the case of `CCC(=O)NC(c1ccc(OC)cc1)c1cc([N+](=O)[O-])c2cccnc2c1O` (centres unmarked) [25-SMD58-26], the IC50 in assay [10] (setting [15]) was 6800 ± 200 nM; in assay [14], 7500 nM; in [11], 7100 ± 1100 nM; in assay [12] (Homo sapiens) it was 3200 nM; in assay [13] (Homo sapiens, SK-BR-3, 72 h), greater than 10000 nM.
In the case of `CCOC(=O)C1CCN(Cc2ccc(O)c3ncccc23)CC1` [10-SMD58], the IC50 is less than 3500 nM in assay [9] (five cancer cell lines); less than 1000 nM in assay [10] (HCT-116, p53+/+ cell line, read-out: IC50); 2400 ± 1500 nM in assay [14]; 300 nM in assay [11]; 500 nM in assay [12]; 3500 ± 500 nM in [13] (72 h).
On to `CCC(=O)NC(c1cccs1)c1cc([N+](=O)[O-])c2cccnc2c1O` (centres unmarked) [26-SMD58-27], for which the IC50 is 5000 ± 400 nM in assay [10] (setting [15]); 5600 nM in [14]; 4200 ± 1200 nM in assay [11]; 3200 ± 800 nM in assay [12] (Homo sapiens); 4600 ± 800 nM in [13] (Homo sapiens, SK-BR-3, 72 h).
`Cc1cc(C)nc(NC(=N)Nc2ccc(Cl)cc2C(=O)c2ccccc2)n1` [2-SMD6-4]: the IC50 in [9] (certain cancer cell lines) was less than 3000 nM; in assay [10] (setting [15]), 2200 ± 800 nM; in [14], greater than 10000 nM; in [11] it was 2100 ± 100 nM; in assay [12] (Homo sapiens), 2500 ± 400 nM; in assay [13] (Homo sapiens, SK-BR-3, 72 h) it was 7400 ± 500 nM.
